Experiments:
[1] = biological target: ATP-dependent translocase ABCB1 (Mus musculus, UniProt P21447); assay: TP_TRANSPORTER: efflux, inhibited by Verapamil in P388/ADR cells; assay type: functional, cell-based
[2] = biological target: Multidrug resistance-associated protein 1 (Homo sapiens, UniProt P33527); assay: TP_TRANSPORTER: efflux, inhibited by MK571 in PANC-1 cells; assay type: functional, cell-based
Multidrug resistance-associated protein 1, sequence (P33527 whole entry): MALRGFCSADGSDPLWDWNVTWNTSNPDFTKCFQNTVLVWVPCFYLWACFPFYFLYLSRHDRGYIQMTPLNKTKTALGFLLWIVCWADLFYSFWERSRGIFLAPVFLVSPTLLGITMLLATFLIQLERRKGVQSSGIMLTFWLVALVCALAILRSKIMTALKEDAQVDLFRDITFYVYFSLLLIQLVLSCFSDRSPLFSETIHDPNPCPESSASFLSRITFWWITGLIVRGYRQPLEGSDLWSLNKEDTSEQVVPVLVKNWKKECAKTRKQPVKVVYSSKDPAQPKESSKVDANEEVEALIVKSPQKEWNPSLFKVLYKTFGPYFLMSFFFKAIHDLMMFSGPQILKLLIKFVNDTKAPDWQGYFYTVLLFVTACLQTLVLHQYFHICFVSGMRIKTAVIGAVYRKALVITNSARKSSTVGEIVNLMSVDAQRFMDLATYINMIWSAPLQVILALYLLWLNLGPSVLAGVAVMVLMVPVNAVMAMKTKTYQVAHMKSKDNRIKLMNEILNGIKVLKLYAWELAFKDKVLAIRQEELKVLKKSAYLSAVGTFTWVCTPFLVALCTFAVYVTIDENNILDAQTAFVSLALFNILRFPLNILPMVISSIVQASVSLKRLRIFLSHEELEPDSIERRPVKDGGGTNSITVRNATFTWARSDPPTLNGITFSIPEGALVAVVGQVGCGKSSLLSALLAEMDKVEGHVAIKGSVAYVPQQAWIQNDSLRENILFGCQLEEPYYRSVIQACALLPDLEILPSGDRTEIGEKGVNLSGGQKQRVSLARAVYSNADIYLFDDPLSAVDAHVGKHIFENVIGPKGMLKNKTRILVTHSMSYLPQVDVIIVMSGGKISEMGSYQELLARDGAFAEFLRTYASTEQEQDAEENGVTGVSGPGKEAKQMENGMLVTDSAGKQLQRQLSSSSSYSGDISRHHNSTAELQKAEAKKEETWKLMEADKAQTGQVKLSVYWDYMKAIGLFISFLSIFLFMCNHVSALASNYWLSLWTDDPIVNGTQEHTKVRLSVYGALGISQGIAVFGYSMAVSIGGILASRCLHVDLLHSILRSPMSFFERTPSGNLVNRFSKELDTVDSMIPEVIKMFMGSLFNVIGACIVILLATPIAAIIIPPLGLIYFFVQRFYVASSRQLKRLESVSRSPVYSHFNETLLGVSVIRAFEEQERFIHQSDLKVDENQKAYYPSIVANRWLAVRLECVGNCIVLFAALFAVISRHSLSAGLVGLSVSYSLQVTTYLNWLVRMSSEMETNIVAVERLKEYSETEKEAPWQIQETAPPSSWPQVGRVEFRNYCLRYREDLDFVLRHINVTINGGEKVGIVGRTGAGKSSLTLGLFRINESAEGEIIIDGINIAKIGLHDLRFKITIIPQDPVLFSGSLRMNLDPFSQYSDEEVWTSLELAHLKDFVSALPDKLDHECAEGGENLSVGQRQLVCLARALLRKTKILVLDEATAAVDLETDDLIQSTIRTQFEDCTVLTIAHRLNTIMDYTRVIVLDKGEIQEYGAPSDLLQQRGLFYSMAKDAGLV

ATP-dependent translocase ABCB1, sequence (P21447 whole entry): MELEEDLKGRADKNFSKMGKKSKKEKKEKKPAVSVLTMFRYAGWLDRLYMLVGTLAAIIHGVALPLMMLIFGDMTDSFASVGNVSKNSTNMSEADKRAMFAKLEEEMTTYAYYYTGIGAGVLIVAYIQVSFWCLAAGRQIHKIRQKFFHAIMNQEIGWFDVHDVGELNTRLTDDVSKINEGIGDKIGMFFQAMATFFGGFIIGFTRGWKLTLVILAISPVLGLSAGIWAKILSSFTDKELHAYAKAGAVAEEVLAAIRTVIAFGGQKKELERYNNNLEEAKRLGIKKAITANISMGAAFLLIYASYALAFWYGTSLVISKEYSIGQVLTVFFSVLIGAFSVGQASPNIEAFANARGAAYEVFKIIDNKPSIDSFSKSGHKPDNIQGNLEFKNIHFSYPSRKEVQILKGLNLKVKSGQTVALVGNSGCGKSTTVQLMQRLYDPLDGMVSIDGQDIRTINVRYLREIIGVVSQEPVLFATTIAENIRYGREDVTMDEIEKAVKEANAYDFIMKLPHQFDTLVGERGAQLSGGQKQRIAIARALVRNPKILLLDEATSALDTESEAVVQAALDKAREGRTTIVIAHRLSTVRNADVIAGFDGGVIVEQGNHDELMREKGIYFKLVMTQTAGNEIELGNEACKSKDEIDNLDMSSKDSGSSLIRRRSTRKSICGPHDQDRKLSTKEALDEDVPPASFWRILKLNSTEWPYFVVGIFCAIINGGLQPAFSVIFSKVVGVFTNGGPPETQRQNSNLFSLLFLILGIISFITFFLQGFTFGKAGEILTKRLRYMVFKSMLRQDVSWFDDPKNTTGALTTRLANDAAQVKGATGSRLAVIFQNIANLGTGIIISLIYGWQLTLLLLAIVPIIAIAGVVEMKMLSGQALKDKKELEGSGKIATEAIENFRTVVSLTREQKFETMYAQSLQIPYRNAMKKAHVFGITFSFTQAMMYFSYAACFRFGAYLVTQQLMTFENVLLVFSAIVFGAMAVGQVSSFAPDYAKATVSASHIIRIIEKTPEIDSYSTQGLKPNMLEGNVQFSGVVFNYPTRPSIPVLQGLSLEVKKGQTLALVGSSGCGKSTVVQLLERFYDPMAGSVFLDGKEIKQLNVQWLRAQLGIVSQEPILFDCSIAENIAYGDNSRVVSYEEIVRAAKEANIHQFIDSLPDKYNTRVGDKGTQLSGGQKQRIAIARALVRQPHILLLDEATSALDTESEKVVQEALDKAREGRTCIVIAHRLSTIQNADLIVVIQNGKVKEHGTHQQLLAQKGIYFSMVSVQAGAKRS

Activity [1]: substrate [+] | Activity [2]: substrate [+]
SMILES: COc1ccc(CCN(C)CCCC(CNC(=O)NCC2=[N+]3C(=Cc4c(C)cc(C)n4[B-]3(F)F)C=C2)(c2ccc(OC)c(OC)c2)C(C)C)cc1OC (configuration not stated)
